Measurements published in patent US20030228672A1, “Sorbitol dehydrogenases of ketogulonigenium species, genes and methods of use thereof” (priority 2002, published 2003).

Tests used:
[1] = system: dehydrogenase enzyme activity (SDH) of K. robustum ADM X6L; assay: Enzyme activity in cellular fractions, Ferric-Dupanol method (localization); assay type: biochemical, Ketogulonigenium robustum ADM X6L
Experimental: (§1) Cells were harvested by centrifugation at 12,000 g for 10 min, washed once with 10 mM Tris·HCl buffer (pH 8.0) and disrupted by sonication in a Branson Sonifier 450 for 15 min at 50% duty cycle in ice. The homogenate thus prepared was centrifuged at 12,000 g for 5 min to remove the cell debris. The resulting supernatant was centrifuged at 100,000 g for 90 min to get the supernatant as soluble fraction and the precipitate as crude membrane fraction. The crude membrane fraction was solubilized with 1.5% n-octyl glucoside by stirring for 2 hours at 4° C. The resultant suspension was centrifuged at 12,000 g for 10 min to give a supernatant, designated as solubilized membrane fraction.
(§2) Enzyme activity was determined also by the Ferric-Dupanol method (Wood, W. A. et al., Meth. Enzymol., 5, 287 (1962)). The enzyme was preincubated for 5 min at 25° C. The reaction was started by addition of 10 mM (final conc.) potassium ferricyanide and 250 mM (final conc.) D-sorbitol, L-sorbose, or glyoxal. After an appropriate time, the reaction was stopped by adding the ferric sulfate-Dupanol solution (Fe2(SO4)3.nH2O 5 g/l, Dupanol (sodium lauryl sulfate) 3 g/l and 85% phosphoric acid 95 ml/l) and the absorbance of the Prussian color developed was determined at 660 nm in a spectrophotometer.
(§3) Enzyme activities towards D-sorbitol, L-sorbose and glyoxal in different cellular fractions were determined for enzyme localization in K. robustum ADM X6L and Ketogulonigenium sp. ADM 291-19. In both cases, most of the enzyme activity detected in crude cell extract was found in the soluble fraction and the activity in solubilized membrane fraction was negligible when assayed with Ferric-Dupanol method.

[2] = system: dehydrogenase enzyme activity (SDH) of Ketogulonigenium sp. ADM 291-19; assay: as above; assay type: biochemical
Experimental: as §1, §2, §3

SDH = SDH activities in osmotic shock fractions, PMS-DCIP method; assay type: biochemical; details: for SDH activity, Osmotic Shock Fluid: Osmotic Shock Fluid (periplasmic fraction); for SDH activity, Pellet Sonicate: Pellet Sonicate (cytoplasm and cytoplasmic membrane); for SDH activity, Tris-Sucrose Wash: Tris-Sucrose Wash (periplasmic fraction)
Experimental: (§4) For more detailed localization study, periplasmic fraction was enriched by the method of osmotic shock (Neu, H. C. and Heppel, L. A., J. Biol. Chem., 240:3685 (1965)). Wet cells were resuspended at about 0.1 g/ml in 20% sucrose-0.03 M Tris·HCl buffer (pH 8.0) at room temperature. Di-sodium EDTA was added to 1 mM and the flask was shaken at 180 rpm at room temperature for 10 min. After centrifugation at 16,000 g for 20 min at 4° C., the supernatant was removed and the pellet was rapidly mixed with cold distilled water of the same volume as the original cell suspension and shaken in ice bucket in a shaker for 10 min. The mixture was centrifuged again to obtain the supernatant called “osmotic shock fluid”. The pellet was sonicated in the same buffer, centrifuged and the supernatant was obtained as “pellet sonicate”.
(§5) The dehydrogenase enzyme activity was assayed spectrophotometrically using 2,6-dichlorophenol indophenol (DCIP) as an artificial electron acceptor and phenazine methosulphate (PMS) as an electron mediator. The reaction mixture contained 50 mM Tris·HCl buffer (pH 8.0), 10 mM MgCl2, 5 mM CaCl2, 5 mM KCN, 0.1 mM PMS, 0.12 mM DCIP, a substrate as D-sorbitol (250 mM), L-sorbose (250 mM) or glyoxal (50 mM) and enzyme solution in a total volumn of 1.0 ml. The rate of decrease in absorbance at 522 nm was determined. One unit of enzyme activity was defined as the amount of enzyme catalyzing reduction of 1 μmol of DCIP per minute.
(§6) For further localization of the enzymes to periplasm or cytoplasm, periplasm was enriched by osmotic shock method as described in Step 3 of Example 1. In this method, the Tris-Sucrose wash and the osmotic shock fluid represent the periplasmic fraction and the pellet sonicate represents the cytoplasm and the cytoplasmic membrane. […] The remaining activity in pellet sonicate could be due to the incomplete release of periplasm by osmotic shock. Typical enzyme activity assay for SDH and β-galactosidase for fractions obtained by osmotic shock fractionation is shown in Table 3.

[3] = system: purified SDH of K. robustum ADM X6L; assay: Substrate specificity of purified SDH, PMS-DCIP method; assay type: biochemical, Ketogulonigenium robustum ADM X6L; details: substrate 250 mM, 1-Propanol = 100
Experimental: as §5
(§7) First, the periplasmic proteins from the cells of K. robustum ADM X6L and Ketogulonigenium sp. ADM 291-19 obtained in Step 1 of Example 1 were prepared by osmotic shock fractionation as described in Step 3 of Example 1. About 50 ml of osmotic shock fluid containing periplasmic proteins was loaded onto a DEAE-TSK 650 (S) (Merck) column (2.5×15 cm) previously equilibrated with 10 mM Tris·HCl buffer (pH 8.0). The column was first washed with 80 ml of 10 mM Tris·HCl buffer (pH 8.0) containing 0.1 M NaCl, followed by a gradient elution with 600 ml of the same buffer containing 0.1-0.5 M NaCl. Fractions containing 5 ml of eluant were collected and assayed for the SDH enzyme activities with D-sorbitol, L-sorbose and glyoxal as substrate. […] At about 0.15 M NaCl, eluted red fractions that probably contained cytochrome c.
(§8) Active fractions eluted from DEAE column were pooled and further purified by gel filtration column chromatography. The active fractions were concentrated by about 20 fold with ultrafiltration in Centricon 30 (Amicon). The concentrate was loaded onto Superose 12 (Pharmacia) and eluted isocratically with 50 mM sodium phosphate buffer (pH 7.0) containing 0.15 M NaCl.
(§9) The purified enzymes were active toward D-sorbitol, L-sorbose and glyoxal.

[4] = system: purified SDH of Ketogulonigenium sp. ADM 291-19; assay: as above; assay type: biochemical; details: substrate 250 mM, 1-Propanol = 100
Experimental: The dehydrogenase enzyme activity was assayed spectrophotometrically using 2,6-dichlorophenol indophenol (DCIP) as an artificial electron acceptor and phenazine methosulphate (PMS) as an electron mediator. […] The rate of decrease in absorbance at 522 nm was determined. One unit of enzyme activity was defined as the amount of enzyme catalyzing reduction of 1 μmol of DCIP per minute.
as §7, §8, §9

purified SDH enzymes = assay: Activity of the purified SDH enzymes toward substrates; assay type: biochemical, K. robustum ADM X6L and Ketogulonigenium sp. ADM 291-19; details: purified SDH enzymes of both strains
Experimental: as §7, §8, §9

β-galactosidase = assay: β-Galactosidase activity in osmotic shock fractions (intracellular enzyme marker); assay type: biochemical; details: High Sensitivity β-Galactosidase Assay Kit
Experimental: as §4, §6

O=C(CO)[C@@H](O)[C@H](O)[C@@H](O)CO [L-sorbose]
enzyme activity, Cell Free Extract [1]: 0.64 ΔOD/min/4 μl enzyme
enzyme activity, Membrane Fraction [1]: 0.01 ΔOD/min/4 μl enzyme
enzyme activity, Soluble Fraction [1]: 0.61 ΔOD/min/4 μl enzyme
enzyme activity, Cell Free Extract [2]: 0.55 ΔOD/min/2 μl enzyme
enzyme activity, Membrane Fraction [2]: 0.00 ΔOD/min/2 μl enzyme
enzyme activity, Soluble Fraction [2]: 0.53 ΔOD/min/2 μl enzyme
SDH activity, Osmotic Shock Fluid (SDH): 0.20 ΔOD/min/50 μl enzyme
SDH activity, Pellet Sonicate (SDH): 0.43 ΔOD/min/50 μl enzyme
SDH activity, Tris-Sucrose Wash (SDH): 0.14 ΔOD/min/50 μl enzyme
% relative activity, ADM X6L [3]: 8.7%
% relative activity, ADM291-19 [4]: 8.8%
activity of the purified enzymes toward the substrate (in words) (purified SDH enzymes): active

O=S1(=O)OC(c2ccc(O)c(Cl)c2)(c2ccc(O[C@@H]3O[C@H](CO)[C@H](O)[C@H](O)[C@H]3O)c(Cl)c2)c2ccccc21 (stereo partly drawn) [chlorophenol red-β-D-galactopyranoside]
β-Galactosidase Activity, Osmotic Shock Fluid (β-galactosidase; Osmotic Shock Fluid): 0.057 nmol/min
β-Galactosidase Activity, Pellet Sonicate (β-galactosidase; Pellet Sonicate): 2.2 nmol/min
β-Galactosidase Activity, Tris-Sucrose Wash (β-galactosidase; Tris-Sucrose Wash): 0.043 nmol/min

O=CC=O [glyoxal]
enzyme activity, Cell Free Extract [1]: 0.39 ΔOD/min/4 μl enzyme
enzyme activity, Membrane Fraction [1]: 0.00 ΔOD/min/4 μl enzyme
enzyme activity, Soluble Fraction [1]: 0.50 ΔOD/min/4 μl enzyme
enzyme activity, Cell Free Extract [2]: 0.61 ΔOD/min/2 μl enzyme
enzyme activity, Membrane Fraction [2]: 0.00 ΔOD/min/2 μl enzyme
enzyme activity, Soluble Fraction [2]: 0.52 ΔOD/min/2 μl enzyme
SDH activity, Osmotic Shock Fluid (SDH): 0.43 ΔOD/min/50 μl enzyme
SDH activity, Pellet Sonicate (SDH): 0.76 ΔOD/min/50 μl enzyme
SDH activity, Tris-Sucrose Wash (SDH): 0.36 ΔOD/min/50 μl enzyme
% relative activity, ADM X6L [3]: 15.1%
% relative activity, ADM291-19 [4]: 16.1%
activity of the purified enzymes toward the substrate (in words) (purified SDH enzymes): active
